Values of other authors in patent publication US11633460B2, “Injectable solution at pH 7 comprising at least one basal insulin wherein the pI is comprised from 5.8 to 8.5 and a co-polyamino acid bearing carboxylate charges and hydrophobic radicals” (ADOCIA, priority 2017, dated 2023).

Conditions: patients, background statement

insulin glargine
Period over which the hypoglycemic effect is quasi-constant: 24 h
